For 17 compounds, pest or weed control and chromatographic logP results are on record in patent US8536202B2, “Triazole-substituted anthranilamides as pesticides” (Bayer Cropscience AG, priority 2010, dated 2013).

Data set [1] has as its system caterpillars of the armyworm (Spodoptera frugiperda). The data set can be described thus: Spodoptera frugiperda test (SPODFR spray treatment). In kind it is in vivo. The conditions noted are these: 168 h, read-out: activity in %. An outline of the steps: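 Percent caterpillar mortality read 7 days after infestation (0% none killed, 100% all killed). Treatment was a spray of the acetone/DMF/emulsifier formulation, water-diluted to test concentration, onto Zea mays leaf discs, allowed to dry before larvae were added.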

The test system of data set [2] is larvae of the mustard beetle (Phaedon cochleariae). Description: Phaedon test (PHAECO spray treatment). In kind it is in vivo. The conditions noted are these: 168 h, read-out: activity in %. The essentials: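 Mortality of mustard beetle larvae, expressed as percent killed (100% all, 0% none), assessed 7 days after spraying. Spray liquor made from compound in acetone plus dimethylformamide with alkylaryl polyglycol ether, diluted in emulsifier-containing water to the desired concentration.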

A short description of data set [3]: log P determination by HPLC on reversed-phase columns (EEC Directive 79/831 Annex V.A8). Type of data set: physicochemical. The settings on record: pH 2.7. The essentials:
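Calibration used unbranched alkan-2-ones of 3 to 16 carbons with known log P, values interpolated linearly from retention times between neighbouring standards. Acidic-range LC-MS run at pH 2.7, eluents aqueous and acetonitrile formic acid 0.1%, linear gradient 10% to 95% acetonitrile.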

Where [4] appears, read: reversed-phase C18 HPLC column, HPLC on reversed-phase columns (C 18), EEC Directive 79/831 Annex V.A8, read-out: logP.

Like-named read-outs stand apart in the source and are kept apart here.

For the compound `Cc1cc(C#N)cc(C(=O)NC(C)(C)C)c1NC(=O)c1cc(Cn2nc3ccc(Br)cc3n2)nn1-c1ncccc1Cl` [Example 107], the pest or weed control at 100 g/ha in data set [1] (100 g/ha, after 7 days) turned out to be 100%; in data set [2] (100 g/ha, after 7 days) it was 100%. In data set [3], the chromatographic logP was 3.85.
In the case of `CSC[C@H](C)NC(=O)c1cc(Cl)cc(Cl)c1NC(=O)c1cc(Cn2cc(C(F)(F)F)nn2)nn1-c1ncccc1Cl` [Example 202], the pest or weed control at 100 g/ha came out at 100% in data set [1] (100 g/ha, after 7 days) and 100% in data set [2] (100 g/ha, after 7 days). The compound also gave a chromatographic logP in data set [3] of 3.28.
Turning to `Cc1cc(C#N)cc(C(=O)NC(C)(C)C)c1NC(=O)c1cc(Cn2ncc(-c3ccc(F)cc3)n2)nn1-c1ncccc1Cl` [Example 61], the pest or weed control at 100 g/ha was 100% in data set [1] (100 g/ha, after 7 days) and 100% in data set [2] (100 g/ha, after 7 days). Besides, the chromatographic logP in data set [3] was 3.72.
On to `CNC(=O)c1cc(C#N)cc(C)c1NC(=O)c1cc(Cn2cc(-c3ccc(Cl)cc3)nn2)nn1-c1ncccc1Cl` [Example 33], for which the pest or weed control at 100 g/ha came to 100% in data set [1] (100 g/ha, after 7 days) and 100% in data set [2] (100 g/ha, after 7 days). The compound further registered a chromatographic logP in data set [3] of 2.75.
Regarding `CSC[C@H](C)NC(=O)c1cc(Cl)cc(Cl)c1NC(=O)c1cc(Cn2ncc(C(F)(C(F)(F)F)C(F)(F)F)n2)nn1-c1ncccc1Cl` [Example 278], the pest or weed control at 100 g/ha in data set [1] (100 g/ha, after 7 days) came out at 100%; in data set [2] (100 g/ha, after 7 days), 100%. Besides, in data set [3] (setting [4]), the chromatographic logP amounted to 4.38.
With `CNC(=O)c1cc(Cl)cc(C)c1NC(=O)c1cc(Cn2cc(-c3ccccc3Cl)nn2)nn1-c1ncccc1Cl` [Example 19], the pest or weed control at 100 g/ha in data set [1] (100 g/ha, after 7 days) is 100%; in data set [2] (100 g/ha, after 7 days), 100%. In data set [3], this compound gave a chromatographic logP of 2.74.
Turning to `Cc1cc(I)cc(C(=O)NC2CC2)c1NC(=O)c1cc(Cn2cc(C(F)(F)F)nn2)nn1-c1ncccc1Cl` [Example 208], the pest or weed control at 100 g/ha is 100% in data set [1] (100 g/ha, after 7 days) and 100% in data set [2] (100 g/ha, after 7 days). In addition, the chromatographic logP in data set [3] turned out to be 3.15.
Regarding `CNC(=O)c1cc(C#N)cc(C)c1NC(=O)c1cc(Cn2ncc(-c3ccc(F)cc3)n2)nn1-c1ncccc1Cl` [Example 40], the pest or weed control at 100 g/ha in data set [1] (100 g/ha, after 7 days) was 100%; in data set [2] (100 g/ha, after 7 days), 100%. The chromatographic logP in data set [3] amounted to 2.96.
For `Cc1cc(F)cc(C(=O)NC(C)C2CC2)c1NC(=O)c1cc(Cn2ncc(C(F)(F)F)n2)nn1-c1ncccc1Cl` (stereo not drawn) [Example 168], the pest or weed control at 100 g/ha in data set [1] (100 g/ha, after 7 days) worked out at 100%; in data set [2] (100 g/ha, after 7 days), 100%. Besides, the chromatographic logP in data set [3] came to 3.36.
Regarding `Cc1cc(Cl)cc(C(=O)NCC2CC2)c1NC(=O)c1cc(Cn2cc(C(F)(C(F)(F)F)C(F)(F)F)nn2)nn1-c1ncccc1Cl` [Example 229], the pest or weed control at 100 g/ha in data set [1] (100 g/ha, after 7 days) worked out at 100%; in data set [2] (100 g/ha, after 7 days), 100%. In data set [3] (setting [4]), the chromatographic logP is 3.91.
With `CNC(=O)c1cc(Cl)cc(C)c1NC(=O)c1cc(Cn2nc(C(F)(F)F)c(C(F)(F)F)n2)nn1-c1ncccc1Cl` [Example 411], the pest or weed control at 100 g/ha in data set [1] (100 g/ha, after 7 days) is 100%; in data set [2] (100 g/ha, after 7 days), 100%. For the same compound, the chromatographic logP in data set [3] worked out at 3.78.
`Cc1cc(C#N)cc(C(=O)NC(C)(C)C)c1NC(=O)c1cc(Cn2ncc(-c3ccc(Cl)cc3)n2)nn1-c1ncccc1Cl` [Example 62]: the pest or weed control at 100 g/ha in data set [1] (100 g/ha, after 7 days) came out at 100%; in data set [2] (100 g/ha, after 7 days) it was 100%. Further, the chromatographic logP in data set [3] was 4.06.
`NC(=O)c1cc(Cl)cc(Cl)c1NC(=O)c1cc(Cn2ncc(C(F)(F)F)n2)nn1-c1ncccc1Cl` [Example 145]: the pest or weed control at 100 g/ha in data set [1] (100 g/ha, after 7 days) worked out at 100%; in data set [2] (100 g/ha, after 7 days), 100%. The chromatographic logP in data set [3] was 2.69.
With `CNC(=O)c1cc(I)cc(C)c1NC(=O)c1cc(Cn2nc(C(F)(F)F)c(C(F)(F)F)n2)nn1-c1ncccc1Cl` [Example 405], the pest or weed control at 100 g/ha in data set [1] (100 g/ha, after 7 days) is 100%; in data set [2] (100 g/ha, after 7 days) it was 100%. Also, the chromatographic logP in data set [3] worked out at 4.03.
As to `Cc1cc(C#N)cc(C(=O)NC2CC2)c1NC(=O)c1cc(Cn2ncc(C(F)(F)C(F)(F)C(F)(F)F)n2)nn1-c1ncccc1Cl` [Example 376], the pest or weed control at 100 g/ha in data set [1] and in data set [2] was 100% each time. In addition, the chromatographic logP in data set [3] (HPLC on reversed-phase columns (C 18), EEC Directive 79/831 Annex V.A8, read-out: logP) stood at 3.63.
`Cc1cc(Cl)cc(C(=O)NC(C)C)c1NC(=O)c1cc(Cn2nc(C(F)(F)F)c(C(F)(F)F)n2)nn1-c1ncccc1Cl` [Example 409]: the pest or weed control at 100 g/ha in data set [1] (100 g/ha, after 7 days) worked out at 100%; in data set [2] (100 g/ha, after 7 days), 100%. The same compound showed a chromatographic logP in data set [3] of 4.23.
For the compound `CNC(=O)c1cc(Cl)cc(C)c1NC(=O)c1cc(Cn2nc3cc(Cl)c(Cl)cc3n2)nn1-c1ncccc1Cl` [Example 77], the pest or weed control at 100 g/ha in data set [1] (100 g/ha, after 7 days) came out at 100%; in data set [2] (100 g/ha, after 7 days), 100%. In data set [3], this compound returned a chromatographic logP of 3.73.
